According to patent publication US20100173013A1, “TREATMENT OF NEOPLASTIC DISORDERS USING COMBINATION THERAPIES” (priority 2009, published 2010):
pIC50: −log10 of the molar value. Where “and” joins values, the source holds several entries; their conditions need not be identical. Equal entries are not always repeated. Structures can show the parent of a compound that is named as a salt. Where two headings read alike, the source gives them in different places. Blank lines part the entries; values can stand above or below the compound they belong to.

Experiments:
[1] = system: A375 melanoma cells; experiment: Alamar Blue cell inhibition assay, A375; format: cell-based; settings: drug added 24 hours before Compound K, read-out: IC50 (single agent)
[2] = system: MDA-MB-468 breast cancer cells; experiment: Alamar Blue cell inhibition assay, MDA-MB-468; format: cell-based; settings: 5 day assay, read-out: IC50 (single agent)
[3] = system: SUM-149PT inflammatory breast carcinoma cells; experiment: Alamar Blue cell inhibition assay, SUM-149PT; format: cell-based; settings: for pIC50: read-out: IC50 (single agent)
[4] = system: SUM-190PT inflammatory breast carcinoma cells; experiment: cells; settings: for pIC50: read-out: IC50 (single agent)
[5] = system: BT-474 breast carcinoma cells; experiment: Alamar Blue cell inhibition assay, BT-474; format: cell-based; settings: read-out: IC50 (single agent)
[6] = system: phosphorylation of AKT at S129, T308, S473, p21 at T145, cleavage of PARP; experiment: Western hybridization analysis in BT-474 (AKT, p21 phosphorylation, PARP cleavage); format: cell-based; settings: 5 uM Compound K, 1 uM AKTi VIII, 5:1 combination, 8 hour assay
[7] = system: Hs 578T breast cancer cells; experiment: Alamar Blue cell inhibition assay, Hs 578T; format: cell-based; settings: 4 day assay, read-out: IC50 (single agent)
[8] = system: T47D breast carcinoma cells; experiment: Alamar Blue cell inhibition assay, T47D; format: cell-based; settings: read-out: IC50 (single agent)
[9] = system: erlotinib-resistant ZR-75-1 breast carcinoma cells; experiment: Alamar Blue cell inhibition assay, ZR-75-1; format: cell-based; settings: 4 day assay, read-out: IC50 (single agent)
[10] = system: phosphorylation of Akt at Ser129 and Ser473, PRAS40 at Thr246; settings: MDA-MB-453; 10 uM Compound K, 100 uM Erlotinib, 2 uM Lapatinib; 2, 4 and 8 hour
Source text: Whole proteomes were isolated from treated cells and analyzed by Western blot for changes in phosphorylation status of Akt at Ser129 and Ser473 or downstream mediator of Akt activity, PRAS40 at Thr246.

[11] = system: erlotinib-resistant MDA-MB-453 breast carcinoma cells; settings: read-out: IC50 (single agent), 4 day assay
[12] = system: MIA PaCa-2 pancreatic cancer cells; experiment: Alamar Blue cell inhibition assay, MIA PaCa-2
[13] = system: erlotinib-resistant MDA-MB-453 breast carcinoma cells; experiment: cells; settings: Homo sapiens, MDA-MB-453, 96 h, read-out: IC50 (single agent)
[14] = Homo sapiens, A-375, A375, 5 day assay
[15] = Homo sapiens, MDA-MB-468, 120 h, Compound K added first, drug the next day
[16] = Homo sapiens, 72 h, BT-474, 3 day assay
[17] = Homo sapiens, 96 h, BT-474, 4 day assay
[18] = Compound K added first, drug the next day
[19] = Homo sapiens, MDA-MB-468, 120 h, drug added first, Compound K the next day
[20] = Homo sapiens, 96 h, T47D, 4 day assay
[21] = Homo sapiens, MIA PaCa-2, read-out: IC50 (single agent)

pIC50 [1, 14]: 5.52
pIC50 [2, 15]: 4.97
pIC50 ([3]; Homo sapiens, SUM149PT): 5.77
pIC50 ([4]; SUM190PT): 4.91
SMILES: O=c1[nH]cc(F)c(=O)[nH]1 [5-Fluorouracil]
degree of inhibitory effect found with agent combination ([4]; Compound K 0 μM, 5-Fluorouracil 10 μM, 5-Fluorouracil added 24 h before K, 5 day assay, positive=synergy, negative=antagonism): 0.0% and −0.0%

SMILES: O=c1[nH]c2ccccc2n1C1CCN(Cc2ccc(-c3nc4cc5[nH]cnc5cc4nc3-c3ccccc3)cc2)CC1 [AKTi VIII, 1,3-Dihydro-1-(1-((4-(6-phenyl-1H-imidazo[4,5-g]quinoxalin-7-yl)phenyl)methyl)-4-piperidinyl)-2H-benzimidazol-2-one]
pIC50 [5, 16]: 6.26
pIC50 [5, 17]: 6.30
cleavage of PARP (i.e. induction of apoptosis) [6]: very minor effect
phosphorylation of AKT at S129 [6]: no effect
phosphorylation of AKT at T308 and S473 [6]: Dramatically reduced
phosphorylation of p21 at T145 [6]: Dramatically decreased

pIC50 [5, 16]: 8.00
SMILES: Cn1c(=O)n(-c2ccc(C(C)(C)C#N)cc2)c2c3cc(-c4cnc5ccccc5c4)ccc3ncc21 [BEZ235]

SMILES: N.N.[Cl][Pt][Cl] [Cisplatin]
pIC50 [2, 18]: 6.37
pIC50 ([3]; SUM-149PT, drug added 24 hours before Compound K, 5 day assay): 6.34

SMILES: CO[C@H]1/C=C\C=C(/C)C(=O)NC2=CC(=O)C(NCCN(C)C)=C(C[C@@H](C)C[C@H](OC)[C@H](O)[C@@H](C)/C=C(\C)[C@@H]1OC(N)=O)C2=O [Compound 17-DMAG, 17-Dimethylamino-ethylamino-17-demethoxygeldanamycin]
pIC50 [7]: 8.20

SMILES: O=C(O)c1ccc2c(c1)nc(Nc1cccc(Cl)c1)c1ccncc12 [Compound K]
pIC50 ([1]; A375, 4 day assay): 5.30 and 5.32 and 5.29
pIC50 [2, 18]: 5.34 and 5.35 and 5.37
pIC50 ([2]; drug added first, Compound K the next day): 5.36 and 5.37 and 5.35
pIC50 ([4]; SUM-190PT, drug added 24 hours before Compound K, 5 day assay): 6.07
pIC50 [5]: 5.57 and 5.54
pIC50 ([8]; T47D, 4 day assay): 5.23
pIC50 ([8]; T-47D, 3 day assay): 5.47
pIC50 [9]: 5.39
pIC50 [7]: 4.75 and 4.78
phosphorylation of Akt at Ser129 [10]: significant reduction
phosphorylation of Akt at Ser473 [10]: affected, but to a lesser degree
phosphorylation of PRAS40 at Thr246 [10]: significantly less pronounced
cleavage of PARP (i.e. induction of apoptosis) [6]: very minor effect
phosphorylation of AKT at S129 [6]: Dramatically reduced
phosphorylation of AKT at T308 and S473 [6]: moderate effect
phosphorylation of p21 at T145 [6]: Dramatically decreased
pIC50 [11]: 5.21
pIC50 ([12]; read-out: IC50 (single agent), MIA PaCa-2, added simultaneously, 4 day assay): 5.77
pIC50 ([12]; read-out: IC50 (single agent), MIA PaCa-2, drug added 24 hours before Compound K, 4 day assay): 5.82 and 5.70
pIC50 ([12]; read-out: IC50 (single agent), MIA PaCa-2, drug added 24 hours before Compound K, 5 day assay): 5.39

pIC50 [2, 15]: 7.80
pIC50 [2, 19]: 7.77
SMILES: COc1cccc2c1C(=O)c1c(O)c3c(c(O)c1C2=O)C[C@@](O)(C(=O)CO)C[C@@H]3O[C@H]1C[C@H](N)[C@H](O)[C@H](C)O1 [Doxorubicin]

pIC50 ([3]; Homo sapiens, SUM149PT): 5.66
pIC50 [5, 17]: 5.18
pIC50 [8, 20]: 4.33
pIC50 ([9]; Homo sapiens, 96 h): < 3.70
pIC50 [13]: < 4.00
SMILES: C#Cc1cccc(Nc2ncnc3cc(OCCOC)c(OCCOC)cc23)c1 [Erlotinib]
degree of inhibitory effect found with agent combination ([3]; Compound K 0 μM, Erlotinib 10 μM, Erlotinib added 24 h before K, 5 day assay, positive=synergy, negative=antagonism): 0.0%
phosphorylation of Akt at Ser129 [10]: no effect
phosphorylation of Akt at Ser473 [10]: below the detectable levels
phosphorylation of PRAS40 at Thr246 [10]: pronounced decrease

SMILES: Nc1nc(F)nc2c1ncn2[C@@H]1O[C@H](CO)[C@@H](O)[C@@H]1O [Fludarabine]
pIC50 [1, 14]: 8.54

pIC50 [2, 15]: 8.10
pIC50 [2, 19]: 8.06
pIC50 [12, 21]: 6.74
SMILES: Nc1ccn([C@@H]2O[C@H](CO)[C@@H](O)C2(F)F)c(=O)n1 [Gemcitabine]

pIC50 [5, 16]: 5.65
SMILES: O=c1cc(N2CCOCC2)oc2c(-c3ccccc3)cccc12 [LY294002, 2-(4-morpholinyl)-8-phenyl-4H-1-benzopyran-4-one]

pIC50 [8, 20]: 5.25
SMILES: CS(=O)(=O)CCNCc1ccc(-c2ccc3ncnc(Nc4ccc(OCc5cccc(F)c5)c(Cl)c4)c3c2)o1 [Lapatinib]
phosphorylation of Akt at Ser129 [10]: no effect
phosphorylation of Akt at Ser473 [10]: below the detectable levels
phosphorylation of PRAS40 at Thr246 [10]: pronounced decrease

SMILES: Oc1cccc(-c2nc(N3CCOCC3)c3oc4ncccc4c3n2)c1 [PI-103, 3-[4-(4-morpholinylpyrido[3′,2′:4,5]furo[3,2-d]pyrimidin-2-yl]phenol hydrochloride]
pIC50 [5, 16]: 6.39
pIC50 ([8]; Homo sapiens, T47D, 72 h): 5.27

pIC50 ([7]; Homo sapiens, 96 h): 8.56
SMILES: Cc1[nH]c2ccccc2c1CCNCc1ccc(/C=C/C(=O)NO)cc1 [Panobinostat]

pIC50 ([3]; Homo sapiens, SUM149PT): 5.01
pIC50 ([12]; Homo sapiens, MIA PaCa-2, 96 h, read-out: IC50 (single agent)): 4.74
SMILES: CO[C@H]1C[C@@H]2CC[C@@H](C)[C@@](O)(O2)C(=O)C(=O)N2CCCC[C@H]2C(=O)O[C@H]([C@H](C)C[C@@H]2CC[C@@H](O)[C@H](OC)C2)CC(=O)[C@H](C)/C=C(\C)[C@@H](O)[C@@H](OC)C(=O)[C@H](C)C[C@H](C)/C=C/C=C/C=C/1C [Rapamycin]

pIC50 [8, 20]: 5.45
SMILES: CNC(=O)c1cc(Oc2ccc(NC(=O)Nc3ccc(Cl)c(C(F)(F)F)c3)cc2)ccn1 [Sorafenib]

pIC50 ([1]; Homo sapiens, A-375, A375, 4 day assay): 6.84
pIC50 [8, 20]: 5.21
pIC50 [12, 21]: 6.38
SMILES: CCN(CC)CCNC(=O)c1c(C)[nH]c(/C=C2\C(=O)Nc3ccc(F)cc32)c1C [Sunitinib]

pIC50 [1, 14]: 8.92
pIC50 [12, 21]: 10.85
SMILES: CC[C@]1(O)C[C@@H]2CN(CCc3c([nH]c4ccccc34)[C@@](C(=O)OC)(c3cc4c(cc3OC)N(C)[C@H]3[C@@](O)(C(=O)OC)[C@H](OC(C)=O)[C@]5(CC)C=CCN6CC[C@]43[C@@H]65)C2)C1 [Vinblastine]

SMILES: COC[C@H]1OC(=O)c2coc3c2[C@@]1(C)C1=C(C3=O)[C@@H]2CCC(=O)[C@@]2(C)C[C@H]1OC(C)=O [Wortmannin]
pIC50 [5, 16]: 4.59
